Data taken from US20230346884A1, “Molecular Targets for Modulation of Dissociative and Associative States” (The Board of Trustees of the Leland Stanford Junior …, priority 2020, published 2023).
“Also recorded” adds a separate entry of the source.

Key:
[1] = test system: retrosplenial cortex (RSP); assay: Widefield (pan-cortical) imaging of cortical activity in GCaMP6s mice; conditions: widefield imaging; i.p.; ketamine 50 mg/kg subanesthetic dose; other drugs at doses of b234
Method: (2 mg/kg), lidocaine (topical), LSD ((+)-Lysergic acid diethylamide (+)-tartrate (2:1), 0.3 mg/kg), and diazepam (2 mg/kg). […] For anti-depressant effects, human doses are typically 0.3-1 mg/kg, and in mouse 3-10 mg/kg.
As described^8, mice were anesthetized with isoflurane, the scalp was removed, the skull cleaned and dried, and a custom head-plate was cemented to contacts over the cerebellum and in front of the olfactory bulb. The skull was then covered in a thin layer of cyanoacrylate glue (Apollo 2000, Cyberbond), clear dental acrylic (Ortho-Jet, Lang Dental), and clear nail polish (Electron Microscopy Services). […] (0.1 mg/kg) was injected subcutaneously for pain management. […] Imaging was performed on a custom-built fluorescence microscope designed for high light collection efficiency and large field of view. […] Alternating 410 nm and 488 nm illumination for non-Ca^2+ dependent artifact removal was controlled using a microcontroller (Arduino) slaved to the frame output trigger of the camera.
Analysis was performed using custom MATLAB (MathWorks) scripts. Widefield imaging videos were registered to a 2D top-projection atlas generated from the annotated Allen Brain Atlas volume, version CCFv2, in MATLAB (MathWorks), using an affine transformation computed from four manually selected control points. Each video was DF/F normalized, using the median for each pixel over the entire time series as F. The 410 nm channel was then temporally smoothed using a moving average (width=400 ms). The smoothed 410 nm DF/F signal for each pixel was regressed onto the 488 nm DF/F signal for the corresponding pixel, and the regression coefficients were used to scale the 410 nm channel to the 488 nm channel. This scaled 410 nm DF/F signal was then subtracted from the 488 nm DF/F signal to produce a normalized signal for each pixel. For quantification, activity traces were extracted from points centered in five cortical regions (visual, somatosensory, parietal, motor, retrosplenial) on the left hemisphere of the brain. The video data was Gaussian smoothed spatially (radius=2 pixels). Similarly, for fiber photometry recordings, the 410 nm signal was regressed onto the 488 nm signal, the 410 nm signal was scaled by the regression coefficients, and then subtracted from the 488 nm signal.
Each trace (corresponding to either a fiber photometry signal, a cellular two-photon signal, a widefield regional centroid, a widefield pixel, an sEEG trace, or a smoothed spike rate Neuropixels trace) was z-scored, and the power spectral density (PSD) was then estimated using Welch's method (pwelch( ) in Matlab), with a window size of 10*fs (15*fs for human sEEG) where fs is the sampling rate of the signal. The average band power within a specified band (i.e. 1-3 Hz) was then computed by integrating the PSD estimate (bandpower in Matlab). For displaying the traces of individual cells, traces were each zscored by subtracting the mean value of the trace (across the whole recorded time window) and dividing by the standard deviation of the trace. Unless otherwise indicated, the PSD was computed across the time window from minutes 10 to 11 post-injection.

mice [2] = assay: Hot plate test; conditions: for Dissociation-like behavior: disconnection between sensory-detection and affective responses: other drug classes, doses of b234
Method: Hot Plate Test: Mice were placed on the hot plate (Bioseb), which was set to 55° C. and surrounded by a clear circular perimeter. Mouse activity was recorded using two cameras from different angles. The experiment ended when the mouse jumped to escape or 90 seconds had elapsed. Care was taken to clean and dry the hot plate apparatus between animals. For optogenetic experiments, mice were connected to patch cords and then returned to a holding cage. Illumination began 30 seconds before mice were placed on the hot plate.

mice [3] = assay: Open field test; type: in vivo, mouse; conditions: 5 min; vs saline; doses of b234
Excerpt: Open Field Test: Mice were placed in an evenly illuminated 50 cm×50 cm open field test box. Mouse position was captured using a webcam and Viewer software (Biobserve).

mice [4] = assay: Resident-intruder social interaction assay; type: in vivo, mouse; conditions: PCP 5 mg/kg
Method: Social Interaction Assay: Resident-intruder social interaction was recorded for two minutes. Interactions were defined as close physical proximity behaviors, including sniffing, touching, and following. […] Illumination began 30 seconds before the same-sex intruder mouse was introduced.

mice [5] = assay: Tail suspension test; type: in vivo, mouse; conditions: PCP 5 mg/kg
Method: Tail Suspension Test: Mouse activity was recorded using a 60 Hz web camera. Struggling activity was quantified for minutes 2-10. […] Illumination began 30 seconds before tails were secured with tape and suspended from the beam. Mice were excluded if they climbed on their own tails.

C[C@]12N[C@H](Cc3ccccc31)c1ccccc12 [MK-801]
Cortical activity pattern: 1-3 Hz oscillation localized to retrosplenial cortex (RSP) [1]: induced the RSP-localized oscillation

CN1C(=O)CN=C(c2ccccc2)c2cc(Cl)ccc21 [diazepam]
Cortical activity pattern: 1-3 Hz oscillation localized to retrosplenial cortex (RSP) [1]: Neither the GABAergic sedative diazepam nor the centrally-acting opioid-analgesic buprenorphine elicited the rhythm
Dissociation-like behavior: disconnection between sensory-detection and affective responses (mice [2]): did not recapitulate dissociative-like behavior
Open-field locomotion velocity (mice [3]): decreased velocity

c1ccc(C2(N3CCCCC3)CCCCC2)cc1 [PCP, phencyclidine]
Social behavior (mice [4]): inhibited longer-timescale escape and social behaviors
Cortical activity pattern: 1-3 Hz oscillation localized to retrosplenial cortex (RSP) [1]: induced the RSP-localized oscillation
Longer-timescale escape behavior (mice [5]): inhibited longer-timescale escape and social behaviors
Dissociation-like behavior: disconnection between sensory-detection and affective responses (mice [2]): recapitulated ketamine's behavioral disconnection between sensory-detection and affective responses in the hot-plate test
Open-field locomotion velocity (mice [3]): locomotion velocity was unchanged

Cc1cccc([C@H](C)c2cnc[nH]2)c1C [dexmedetomidine]
Cortical activity pattern: 1-3 Hz oscillation localized to retrosplenial cortex (RSP) [1]: elicited waves of cortical activity without RSP restriction

CC(C)c1cccc(C(C)C)c1O [propofol]
Cortical activity pattern: 1-3 Hz oscillation localized to retrosplenial cortex (RSP) [1]: elicited waves of cortical activity without RSP restriction

CC12CC3CC(C)(C1)CC(N)(C3)C2 [Memantine, memantine]
Cortical activity pattern: 1-3 Hz oscillation localized to retrosplenial cortex (RSP) [1]: did not elicit oscillation

(+)-Lysergic acid diethylamide (+)-tartrate (2:1) [LSD]
Cortical activity pattern: 1-3 Hz oscillation localized to retrosplenial cortex (RSP) [1]: did not elicit oscillation
Responsivity to salient stimuli (time-to-jump, rearing/socialization) (mice [2]; LSD 0.3 mg/kg): tended to increase responsivity to salient stimuli (decreased time-to-jump, increased rearing/socialization)
Dissociation-like behavior: disconnection between sensory-detection and affective responses (mice [2]): disrupted neither sensory-detection nor affective responses
Open-field locomotion velocity (mice [3]): reducing locomotion in the stimulus-poor open-field; also recorded: decreased velocity
